# Tests used:
# [1] = molecular target: Mitogen-activated protein kinase kinase kinase 14 (Homo sapiens) (UniProt Q99558); details: Compound concentration 1000.0 nM
# [2] = molecular target: Sodium-dependent dopamine transporter (Homo sapiens, UniProt Q01959); assay: GPCRScan assay: inhibition of DAT; parameters: radioligand conc. used [nm] 3.6 – 16.0, parental cells stable HEK
# [3] = molecular target: Sodium/potassium-transporting ATPase subunit alpha-1 (Sus scrofa) (UniProt P05024); assay: ATPASE(NA/K) Cerep selectivity data (BI); details: Compound concentration 20.0 uM
# [4] = molecular target: Prostaglandin G/H synthase 1 (Homo sapiens) (UniProt P23219); assay: COX1_HU Cerep selectivity data (BI); details: Compound concentration 20.0 uM
# [5] = molecular target: Angiotensin-converting enzyme 2 (Homo sapiens) (UniProt Q9BYF1); assay: ACE-2(HU) Cerep selectivity data (BI); details: Compound concentration 20.0 uM
# [6] = molecular target: Phosphatidylinositol 4-phosphate 3-kinase C2 domain-containing subunit alpha (Homo sapiens) (UniProt O00443); assay: PIK3C2A Invitrogen selectivity data (BI); details: Compound concentration 3.0 uM
# Chain of Phosphatidylinositol 4-phosphate 3-kinase C2 domain-containing subunit alpha (Homo sapiens) (O00443 whole entry, the tested form may be a part): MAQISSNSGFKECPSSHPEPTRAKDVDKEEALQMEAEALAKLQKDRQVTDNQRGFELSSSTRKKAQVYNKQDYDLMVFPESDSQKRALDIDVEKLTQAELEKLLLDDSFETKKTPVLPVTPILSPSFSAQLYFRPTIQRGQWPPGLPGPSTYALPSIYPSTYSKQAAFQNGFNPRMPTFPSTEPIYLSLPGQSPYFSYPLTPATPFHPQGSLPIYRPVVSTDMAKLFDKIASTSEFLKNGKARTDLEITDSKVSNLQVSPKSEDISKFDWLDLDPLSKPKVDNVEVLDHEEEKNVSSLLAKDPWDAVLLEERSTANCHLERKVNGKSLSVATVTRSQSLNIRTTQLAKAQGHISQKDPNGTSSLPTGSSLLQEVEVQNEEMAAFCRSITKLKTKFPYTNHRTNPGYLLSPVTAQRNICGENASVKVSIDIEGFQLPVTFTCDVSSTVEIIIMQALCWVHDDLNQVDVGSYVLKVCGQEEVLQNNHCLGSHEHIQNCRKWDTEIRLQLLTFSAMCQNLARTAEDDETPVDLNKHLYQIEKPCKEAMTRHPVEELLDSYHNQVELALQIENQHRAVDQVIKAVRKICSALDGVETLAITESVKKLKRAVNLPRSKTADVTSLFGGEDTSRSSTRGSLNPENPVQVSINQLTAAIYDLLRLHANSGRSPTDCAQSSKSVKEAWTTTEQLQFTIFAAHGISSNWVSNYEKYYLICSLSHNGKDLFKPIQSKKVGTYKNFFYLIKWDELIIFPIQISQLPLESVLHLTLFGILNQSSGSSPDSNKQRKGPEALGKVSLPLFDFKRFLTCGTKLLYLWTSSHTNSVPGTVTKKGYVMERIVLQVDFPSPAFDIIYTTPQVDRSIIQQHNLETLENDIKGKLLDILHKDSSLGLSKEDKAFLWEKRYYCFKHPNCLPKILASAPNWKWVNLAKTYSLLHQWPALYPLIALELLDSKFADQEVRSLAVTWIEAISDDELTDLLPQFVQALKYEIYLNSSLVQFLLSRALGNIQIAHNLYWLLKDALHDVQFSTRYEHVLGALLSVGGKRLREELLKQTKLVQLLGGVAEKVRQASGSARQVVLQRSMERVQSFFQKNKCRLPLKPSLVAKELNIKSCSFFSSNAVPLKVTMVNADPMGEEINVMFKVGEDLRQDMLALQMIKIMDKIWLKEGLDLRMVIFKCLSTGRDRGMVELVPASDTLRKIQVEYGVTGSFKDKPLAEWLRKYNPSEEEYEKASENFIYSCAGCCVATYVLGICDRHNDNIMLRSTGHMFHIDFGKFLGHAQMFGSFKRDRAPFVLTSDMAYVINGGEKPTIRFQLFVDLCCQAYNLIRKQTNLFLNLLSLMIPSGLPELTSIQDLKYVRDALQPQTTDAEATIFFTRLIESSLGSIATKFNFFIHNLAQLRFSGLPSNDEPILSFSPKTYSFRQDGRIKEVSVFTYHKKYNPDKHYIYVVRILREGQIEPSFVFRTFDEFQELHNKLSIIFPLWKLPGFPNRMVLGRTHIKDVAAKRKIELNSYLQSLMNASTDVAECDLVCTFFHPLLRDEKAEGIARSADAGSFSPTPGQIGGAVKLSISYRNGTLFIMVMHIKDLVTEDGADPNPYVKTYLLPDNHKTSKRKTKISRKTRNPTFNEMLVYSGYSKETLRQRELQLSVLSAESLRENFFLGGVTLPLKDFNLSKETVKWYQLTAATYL
# [7] = molecular target: Glutamate receptor ionotropic, NMDA 2A (Rattus norvegicus) (UniProt Q00959); assay: NMDA/R Cerep selectivity data (BI); details: Compound concentration 20.0 uM
# [8] = molecular target: Dual specificity mitogen-activated protein kinase kinase 1 (Homo sapiens) (UniProt Q02750); assay: MAP2K1 Invitrogen selectivity data (BI); details: Compound concentration 3.0 uM
# [9] = molecular target: Serine/threonine-protein kinase Nek7 (Homo sapiens) (UniProt Q8TDX7); assay: NEK7 Invitrogen selectivity data (BI); details: Compound concentration 3.0 uM
# [10] = molecular target: High affinity nerve growth factor receptor (Homo sapiens) (UniProt P04629); assay: NTRK1 Invitrogen selectivity data (BI); details: Compound concentration 3.0 uM
# Chain of High affinity nerve growth factor receptor (Homo sapiens) (P04629 33-796 limits assumed): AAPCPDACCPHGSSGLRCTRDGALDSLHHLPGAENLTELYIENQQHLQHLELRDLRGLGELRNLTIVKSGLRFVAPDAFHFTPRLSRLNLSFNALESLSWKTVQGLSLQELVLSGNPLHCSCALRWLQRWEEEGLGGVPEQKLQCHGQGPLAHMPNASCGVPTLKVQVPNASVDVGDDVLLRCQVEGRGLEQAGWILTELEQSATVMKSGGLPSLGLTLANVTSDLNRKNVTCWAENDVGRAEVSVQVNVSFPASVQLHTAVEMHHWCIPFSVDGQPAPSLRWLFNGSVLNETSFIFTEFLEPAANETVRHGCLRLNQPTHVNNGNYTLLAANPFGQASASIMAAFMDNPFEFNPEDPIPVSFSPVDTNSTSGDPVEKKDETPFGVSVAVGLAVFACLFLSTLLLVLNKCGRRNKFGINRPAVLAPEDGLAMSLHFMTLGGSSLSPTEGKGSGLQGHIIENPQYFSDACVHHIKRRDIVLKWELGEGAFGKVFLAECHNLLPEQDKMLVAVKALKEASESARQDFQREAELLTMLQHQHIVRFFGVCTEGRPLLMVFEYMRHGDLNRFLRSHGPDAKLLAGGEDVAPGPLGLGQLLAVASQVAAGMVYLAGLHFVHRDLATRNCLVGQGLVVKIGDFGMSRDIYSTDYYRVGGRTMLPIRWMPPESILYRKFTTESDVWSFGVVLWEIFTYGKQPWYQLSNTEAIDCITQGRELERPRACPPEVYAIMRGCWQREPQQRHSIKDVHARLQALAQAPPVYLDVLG
# [11] = molecular target: Ribosomal protein S6 kinase alpha-3 (Homo sapiens) (UniProt P51812); assay: RPS6KA3 Invitrogen selectivity data (BI); details: Compound concentration 3.0 uM
# [12] = test system: Platelet-derived growth factor receptor alpha (Homo sapiens), P16234 [T674I]; assay: PDGFRA T674I Invitrogen selectivity data (BI); details: Compound concentration 3.0 uM
# [13] = molecular target: T1, Activin receptor type-1 (Homo sapiens) (UniProt Q04771); assay: ACVR1 Invitrogen selectivity data (BI); details: Compound concentration 3.0 uM
# T1 sequence (whole entry): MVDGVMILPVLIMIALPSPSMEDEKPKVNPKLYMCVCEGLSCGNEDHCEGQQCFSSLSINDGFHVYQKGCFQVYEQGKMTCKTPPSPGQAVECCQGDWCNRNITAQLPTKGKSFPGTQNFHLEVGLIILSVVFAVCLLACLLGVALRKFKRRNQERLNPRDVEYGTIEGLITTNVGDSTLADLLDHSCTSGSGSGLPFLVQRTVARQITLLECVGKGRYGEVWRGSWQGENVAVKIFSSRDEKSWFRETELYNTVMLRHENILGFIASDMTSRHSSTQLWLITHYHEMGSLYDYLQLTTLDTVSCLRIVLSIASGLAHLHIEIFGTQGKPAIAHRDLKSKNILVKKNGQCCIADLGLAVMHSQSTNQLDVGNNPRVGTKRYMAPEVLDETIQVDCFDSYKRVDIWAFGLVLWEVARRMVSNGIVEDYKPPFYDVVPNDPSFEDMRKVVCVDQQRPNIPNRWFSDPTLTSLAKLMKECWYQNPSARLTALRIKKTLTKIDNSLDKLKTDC
# [14] = molecular target: Melanin-concentrating hormone receptor 1 (Homo sapiens) (UniProt Q99705); assay: MCH1H_AGON Cerep selectivity data (BI); details: filed as agonist, Compound concentration 20.0 uM
# [15] = molecular target: Protein kinase C alpha type (Homo sapiens) (UniProt P17252); assay: PRKCA Invitrogen selectivity data (BI); details: Compound concentration 3.0 uM
# [16] = molecular target: Bone morphogenetic protein receptor type-1A (Homo sapiens) (UniProt P36894); assay: BMPR1A(ALK3) Invitrogen selectivity data (BI); details: Compound concentration 3.0 uM
# [17] = molecular target: Adenosine receptor A2b (Homo sapiens) (UniProt P29275); assay: A2B/H Cerep selectivity data (BI); details: Compound concentration 20.0 uM
# Chain of Adenosine receptor A2b (Homo sapiens) (P29275 whole entry): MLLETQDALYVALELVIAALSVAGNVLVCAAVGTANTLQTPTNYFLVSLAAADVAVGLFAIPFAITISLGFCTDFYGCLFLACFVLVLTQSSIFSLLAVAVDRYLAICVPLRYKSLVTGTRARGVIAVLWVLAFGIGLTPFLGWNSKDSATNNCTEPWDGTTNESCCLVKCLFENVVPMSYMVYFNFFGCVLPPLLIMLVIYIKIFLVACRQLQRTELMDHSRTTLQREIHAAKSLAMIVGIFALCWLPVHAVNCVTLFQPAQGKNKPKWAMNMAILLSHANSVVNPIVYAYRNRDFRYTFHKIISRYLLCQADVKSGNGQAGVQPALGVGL
# [18] = molecular target: T2, Mitogen-activated protein kinase 12 (Homo sapiens) (UniProt P53778); assay: MAPK12 Invitrogen selectivity data (BI); details: Compound concentration 3.0 uM
# T2 sequence (whole entry): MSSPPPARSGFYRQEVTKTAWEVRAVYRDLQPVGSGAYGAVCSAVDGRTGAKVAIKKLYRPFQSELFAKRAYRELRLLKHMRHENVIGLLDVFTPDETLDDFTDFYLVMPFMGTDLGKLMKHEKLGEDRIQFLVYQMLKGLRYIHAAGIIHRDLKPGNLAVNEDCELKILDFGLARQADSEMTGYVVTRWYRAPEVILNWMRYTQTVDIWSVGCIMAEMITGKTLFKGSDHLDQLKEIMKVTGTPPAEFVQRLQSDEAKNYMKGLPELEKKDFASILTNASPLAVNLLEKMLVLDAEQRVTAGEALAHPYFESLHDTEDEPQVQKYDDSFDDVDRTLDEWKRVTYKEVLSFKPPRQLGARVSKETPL
# [19] = molecular target: Endothelin receptor type B (Homo sapiens) (UniProt P24530); assay: ETB/H Cerep selectivity data (BI); details: Compound concentration 20.0 uM
# Chain of Endothelin receptor type B (Homo sapiens) (P24530 whole entry): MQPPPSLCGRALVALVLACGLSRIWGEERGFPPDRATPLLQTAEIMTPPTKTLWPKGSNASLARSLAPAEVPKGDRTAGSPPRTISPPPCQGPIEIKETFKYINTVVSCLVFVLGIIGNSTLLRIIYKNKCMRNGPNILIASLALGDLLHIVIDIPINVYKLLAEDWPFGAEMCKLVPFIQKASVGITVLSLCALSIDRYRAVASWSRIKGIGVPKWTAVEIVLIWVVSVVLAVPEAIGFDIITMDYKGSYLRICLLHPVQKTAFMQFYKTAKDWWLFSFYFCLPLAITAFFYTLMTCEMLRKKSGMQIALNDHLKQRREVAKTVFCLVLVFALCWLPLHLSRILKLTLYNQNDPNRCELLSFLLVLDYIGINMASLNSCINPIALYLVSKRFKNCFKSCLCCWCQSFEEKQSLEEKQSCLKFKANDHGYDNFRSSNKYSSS
# [20] = molecular target: Neprilysin (Homo sapiens) (UniProt P08473); assay: N_ENDOPEP Cerep selectivity data (BI); details: Compound concentration 20.0 uM
# [21] = molecular target: T3, Alpha-2A adrenergic receptor (Homo sapiens) (UniProt P08913); assay: ALPHA2A/HU Cerep selectivity data (BI); details: Compound concentration 20.0 uM
# T3 sequence (whole entry): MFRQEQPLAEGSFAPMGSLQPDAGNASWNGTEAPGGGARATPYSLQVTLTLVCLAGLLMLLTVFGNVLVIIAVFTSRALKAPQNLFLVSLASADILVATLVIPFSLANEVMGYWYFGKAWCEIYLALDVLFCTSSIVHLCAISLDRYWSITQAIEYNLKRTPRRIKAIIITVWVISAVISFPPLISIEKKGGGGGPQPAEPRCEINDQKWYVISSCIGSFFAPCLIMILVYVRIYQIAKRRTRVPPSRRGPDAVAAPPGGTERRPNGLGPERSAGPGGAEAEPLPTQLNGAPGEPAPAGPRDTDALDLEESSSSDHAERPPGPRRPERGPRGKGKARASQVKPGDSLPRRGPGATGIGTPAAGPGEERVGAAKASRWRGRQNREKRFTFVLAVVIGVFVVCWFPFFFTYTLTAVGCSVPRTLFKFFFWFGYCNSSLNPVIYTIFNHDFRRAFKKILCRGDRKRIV
# [22] = test system: Tyrosine-protein kinase ABL1 (Homo sapiens), P00519 [E255K]; assay: ABL1 E255K Invitrogen selectivity data (BI); details: Compound concentration 3.0 uM
# Chain of Tyrosine-protein kinase ABL1 (Homo sapiens), P00519 [E255K] (P00519 whole entry E255K): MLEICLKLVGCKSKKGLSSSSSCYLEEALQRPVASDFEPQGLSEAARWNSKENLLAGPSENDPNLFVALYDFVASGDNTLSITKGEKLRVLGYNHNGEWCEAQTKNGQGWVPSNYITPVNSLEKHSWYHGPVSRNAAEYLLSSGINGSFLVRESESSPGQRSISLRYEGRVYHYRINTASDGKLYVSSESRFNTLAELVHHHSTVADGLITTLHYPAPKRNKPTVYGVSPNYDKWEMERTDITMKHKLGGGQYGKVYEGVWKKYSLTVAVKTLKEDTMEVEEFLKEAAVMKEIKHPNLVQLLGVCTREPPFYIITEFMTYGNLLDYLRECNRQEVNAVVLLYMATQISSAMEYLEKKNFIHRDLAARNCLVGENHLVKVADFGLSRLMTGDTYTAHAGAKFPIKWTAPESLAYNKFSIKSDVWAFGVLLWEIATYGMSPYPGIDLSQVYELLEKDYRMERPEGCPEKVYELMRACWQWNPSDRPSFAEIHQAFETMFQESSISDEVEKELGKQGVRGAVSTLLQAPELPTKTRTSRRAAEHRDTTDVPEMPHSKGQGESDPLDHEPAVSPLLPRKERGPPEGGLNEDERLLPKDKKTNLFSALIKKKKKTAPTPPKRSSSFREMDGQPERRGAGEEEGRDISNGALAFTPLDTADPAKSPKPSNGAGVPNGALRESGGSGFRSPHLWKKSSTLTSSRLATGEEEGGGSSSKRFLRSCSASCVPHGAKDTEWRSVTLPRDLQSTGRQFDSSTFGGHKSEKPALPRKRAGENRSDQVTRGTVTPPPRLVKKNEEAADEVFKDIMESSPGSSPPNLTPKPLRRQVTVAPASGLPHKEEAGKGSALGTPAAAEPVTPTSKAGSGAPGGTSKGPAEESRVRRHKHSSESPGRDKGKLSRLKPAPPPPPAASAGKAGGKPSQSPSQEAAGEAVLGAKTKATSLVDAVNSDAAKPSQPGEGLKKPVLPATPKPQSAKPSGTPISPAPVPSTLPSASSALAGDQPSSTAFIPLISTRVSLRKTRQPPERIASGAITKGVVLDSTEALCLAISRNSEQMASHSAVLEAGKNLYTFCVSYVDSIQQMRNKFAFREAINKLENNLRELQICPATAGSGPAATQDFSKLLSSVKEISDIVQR
# [23] = molecular target: Mast/stem cell growth factor receptor Kit (Homo sapiens) (UniProt P10721); assay: KIT Invitrogen selectivity data (BI); details: Compound concentration 3.0 uM
# [24] = molecular target: Mitogen-activated protein kinase 8 (Homo sapiens) (UniProt P45983); assay: MAPK8 Invitrogen selectivity data (BI); details: Compound concentration 3.0 uM
# [25] = molecular target: cGMP-specific 3',5'-cyclic phosphodiesterase (Homo sapiens) (UniProt O76074); assay: PDE5 Cerep selectivity data (BI); details: Compound concentration 20.0 uM
# [26] = molecular target: T3, Alpha-2A adrenergic receptor (Homo sapiens); assay: ALPHA2A/H Eurofins-Panlabs selectivity data (BI); details: Compound concentration 10.0 uM
# [27] = molecular target: Ribosomal protein S6 kinase alpha-1 (Homo sapiens) (UniProt Q15418); assay: RPS6KA1 Invitrogen selectivity data (BI); details: Compound concentration 3.0 uM
# [28] = molecular target: Endothelin receptor type B (Homo sapiens) (UniProt P24530); assay: ETB/HUM Eurofins-Panlabs selectivity data (BI); details: Compound concentration 10.0 uM
# Chain of Sodium-dependent dopamine transporter (Q01959 whole entry): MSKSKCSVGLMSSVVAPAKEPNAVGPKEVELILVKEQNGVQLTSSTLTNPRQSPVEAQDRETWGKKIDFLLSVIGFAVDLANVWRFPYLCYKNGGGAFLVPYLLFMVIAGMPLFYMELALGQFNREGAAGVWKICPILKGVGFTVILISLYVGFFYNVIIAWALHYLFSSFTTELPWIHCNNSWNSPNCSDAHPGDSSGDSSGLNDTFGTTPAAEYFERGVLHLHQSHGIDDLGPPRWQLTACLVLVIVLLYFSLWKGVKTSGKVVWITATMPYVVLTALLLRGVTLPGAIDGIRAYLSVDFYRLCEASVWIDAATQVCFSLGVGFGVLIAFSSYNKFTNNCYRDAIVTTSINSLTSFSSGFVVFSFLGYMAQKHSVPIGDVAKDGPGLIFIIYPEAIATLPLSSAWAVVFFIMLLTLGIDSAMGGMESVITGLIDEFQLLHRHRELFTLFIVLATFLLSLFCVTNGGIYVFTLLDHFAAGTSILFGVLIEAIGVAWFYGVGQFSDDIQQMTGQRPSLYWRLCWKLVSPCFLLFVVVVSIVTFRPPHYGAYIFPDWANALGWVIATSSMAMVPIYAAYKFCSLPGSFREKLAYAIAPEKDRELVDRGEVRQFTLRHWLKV
compound,measurement,setting,value
CN(C)C(=O)Cn1cc(-c2nc(C3(c4ccc(-c5cnc(N)nc5)cc4)CC3)no2)cn1 [BI 0153],residual activity,[1],83%
same,Ki,[2]; read-out: Ki,855 nM
same,Ki,[2]; read-out: pKi (converted),794 nM
CN(C)C(=O)Cn1cc(-c2nc([C@@](C)(c3ccc(-c4cnc(N)nc4)cc3)C3CC3)no2)cn1 [BI 665915],residual activity,[3],99%
same,residual activity,[4],62%
same,residual activity,[5],132%
same,residual activity,[6],104%
same,residual activity,[7],90%
same,residual activity,[8],98%
same,residual activity,[9],99%
same,residual activity,[10],95.5%
same,residual activity,[11],105%
same,residual activity,[12],87%
same,residual activity,[13],79%
same,residual activity,[14],116%
same,residual activity,[15],102%
same,residual activity,[16],87%
same,residual activity,[17],83%
same,residual activity,[18],91.5%
same,residual activity,[19],109%
same,residual activity,[20],108%
same,residual activity,[21],101%
same,residual activity,[22],82%
same,residual activity,[23],85%
same,residual activity,[24],93%
same,residual activity,[25],89%
same,residual activity,[26],105%
same,residual activity,[27],96%
same,residual activity,[28],98%

# Source: ChEMBL document CHEMBL4507276 (2021)
